From patent US6534501B2, “Allosteric inhibitors of pyruvate kinase” (Allos Therapeutics, Inc., priority 1998, dated 2003)

Columns and labels:
[1] = target: T1, Human Erythrocyte Pyruvate Kinase (R-PK) (Homo sapiens, UniProt P30613); experiment: PK activity assay coupled with lactate dehydrogenase (NADH oxidation at 340 nm); type: biochemical; conditions: for IC50: stock solutions in DMSO, dose-response of FIG. 6, read-out: IC50 (R-PK inhibition)
T1 construct: The four units of human whole blood obtained from the Blood Bank; from tissue
T1 sequence (P30613 whole entry): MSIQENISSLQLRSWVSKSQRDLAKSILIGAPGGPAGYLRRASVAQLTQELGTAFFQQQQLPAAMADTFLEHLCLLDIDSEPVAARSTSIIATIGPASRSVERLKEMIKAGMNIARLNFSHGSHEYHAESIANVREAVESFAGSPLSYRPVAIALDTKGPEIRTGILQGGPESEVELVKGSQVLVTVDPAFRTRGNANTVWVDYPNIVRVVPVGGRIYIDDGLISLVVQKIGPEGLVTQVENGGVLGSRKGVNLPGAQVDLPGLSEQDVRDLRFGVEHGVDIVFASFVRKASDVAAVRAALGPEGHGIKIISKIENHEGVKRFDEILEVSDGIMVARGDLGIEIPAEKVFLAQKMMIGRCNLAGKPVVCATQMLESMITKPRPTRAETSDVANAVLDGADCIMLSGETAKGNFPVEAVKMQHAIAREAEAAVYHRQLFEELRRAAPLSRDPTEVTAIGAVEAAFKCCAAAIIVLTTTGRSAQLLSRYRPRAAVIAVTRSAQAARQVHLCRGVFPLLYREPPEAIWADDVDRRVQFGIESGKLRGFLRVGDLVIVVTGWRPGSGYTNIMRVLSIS
Method: PK activity was measured using the assay conditions that are recommended by the International Committee for Standardization in Hematology (ICSH). […] The positive cooperativity of substrate binding is clearly seen from the upward curvature in the Lineweaver plot. The experimental data were fit to the Hill equation. The derived parameters were K0.5S=2.37 mM and Hill coefficient (nH) of 1.41.
Phenlyalanine has long been known as an allosteric inhibitor of PK. […] It can be seen from FIG. 2 that an increase in the concentration of phenlyalanine results in a decreased affinity and a more pronounced sigmoidity of the substrate binding. When phenylalanine increases from 0 to 30 mM, the K0.5S increases by 2.5 folds and nH increases by 1.4 folds, respectively. To avoid fluctuations in measurement of PK parameters, all experiments reported herein and assays were performed using the same batch of preparation and under identical conditions.
PK activity is measured by coupling it with lactate dehydrogenase, which transforms pyruvate into lactate and oxidizes NADH into NAD. A reduction of oxidation of NADH is followed at 340 nm using the 96 well plate in a Spectramax spectrophotometer (Molecular Devices, Ca.).
The assay buffer (100 mM Tris pH 7.5) was prepared by dissolving TRIS 100 mM, KCl 100 mM, EDTA 0.5 mM, and 10 MM MgCl2 in deionized water. The pH of the solution was adjusted to 7.5 by adding a small amount of TRIS. The stock solution of NADH (20 mM), ADP 100 mM (neutralized), LDH 500 IU/ml and PEP 100 mM were prepared in the assay buffer. The following quantities of reagents were added to make 1 ml of assay solution.
The contents were mixed and incubated for five minutes at 37° C. Then, 50 μl of PEP was added and the absorbance changes were followed at 340 nm. The initial reaction velocity in AU/min was then calculated.
The control samples in each experiment were incubated under the same conditions as without any compound. In all cases, the experiments were begun after saturation with PEP. The percent inhibition of PK activity was calculated by subtracting the activity of the control sample from the activity in the presence of compound.
Compounds 4(1) through 4(12) thus obtained were tested.
The percent activity values presented in FIG. 5 represent an average of six independent experiments. All examined compounds were prepared as stock solutions in DMSO.
As a control for FIG. 5, the assay was performed with DMSO, but no compound.
Otherwise, the dose-response for R-PK in FIG. 5 in this Example 5 was performed as described in the above Examples.

[2] = compound concentration 0.5 mM, pH 7.5, 37° C., after saturation with PEP
[3] = compound concentration 2 mM, pH 7.5, 37° C., after saturation with PEP
[4] = phenylalanine increases from 0 to 30 mM

2-(9-Ethyl-9H-carbazol-3-ylvinylideneamino)-1-(4-nitrobenzoate) [(5)]
IC50 [1]: 17.4 µM

2-phenylethyloxy-5-formylbenzoic acid [TB 32]
% PK Inhibition [1, 2]: 48%
% PK Inhibition [1, 3]: 77%
% PK Inhibition ([1]; compound concentration 3 mM, pH 7.5, 37° C., after saturation with PEP): 80%

3-(2-{1-(3-Chlorophenyl)-1(3-hydroxyphenyl)-ureido]-ethyl}-4-oxo-4H-quinazolin-3-yl)-propionic acid [(4)]
IC50 [1]: 16.1 µM

CCCCN(Cc1c2ccccc2c(Cl)c2ccccc12)C(=O)NCC(=O)OCC [(1), [3-Butyl-3-(10-chloro-anthracen-9-ylmethyl)-ureido]-acetic acid ethyl ester]
IC50 [1]: > 50 µM

Cc1cccc2nc3cccc(C(=O)Nc4ccccc4C(=O)O)c3nc12 [(2), 2-[(9-Methyl-phenazine-1-carbonyl)-amino]-benzoic acid]
IC50 [1]: 8.9 µM

O=c1oc(Nc2ccc(Cl)cc2)nc2ccccc12 [(3), 2-(4-Chloro-phenylamino)-benzo[d][1,3]oxazin-4-one]
IC50 [1]: 20.9 µM

CCc1nc2ccccc2c(=O)n1CCc1cn(COC(=O)CCl)c2ccccc12 [(6), Chloroacetic acid 3-[2-(2-ethyl-4-oxo-4H-quinazolin-3-yl)ethyl]-indol-lylmethylester]
IC50 [1]: 12.1 µM

COC(=O)c1sc(-c2ccc(Cl)cc2)cc1NCc1ccccc1 [(7), 3-Benzylamino-5-(4-chlorophenyl)-4H-1λ^4-thiophene-2-carboxylic acid methyl ester]
IC50 [1]: 16.9 µM

COC(=O)c1cc(Oc2ccc(C(=O)OC)cc2NC(=O)c2cc(Cl)cc(Cl)c2)cc(C(=O)OC)c1 [(8), 5-[2-(3,5-Dichlorobenzoylamino)-4-methoxycarbonyl-phenoxy]-isophtahlic acid dimethyl ester]
IC50 [1]: 9 µM

COC(=O)c1cc(Oc2ccc(C(=O)OC)cc2NC(=O)NC2CCCCC2)cc(C(=O)OC)c1 [(9), 5-[2-(3-Cyclohexyl-ureido)-4-methoxycarbonyl-phenoxy]-isophtahlic acid dimethyl ester]
IC50 [1]: 9.4 µM

N[C@@H](Cc1ccccc1)C(=O)O [L-Phenylalanine, reference compound]
inhibition at 10000 µM ([1]; compound concentration 10 mM, pH 7.5, 37° C., after saturation with PEP): 15%
inhibition at 30000 µM ([1]; compound concentration 30 mM, pH 7.5, 37° C., after saturation with PEP): 72%
increase of Hill coefficient nH [1, 4]: 1.4 folds
increase of K0.5S (PEP) [1, 4]: 2.5 folds

COc1ccc(OCCCCCC(=O)O)c(C=O)c1 [TB 88, 6-(2-formyl-4-methoxyphenoxy)hexanoic acid]
inhibition at 500 µM [1, 2]: 16%
inhibition at 2500 µM ([1]; compound concentration 2.5 mM, pH 7.5, 37° C., after saturation with PEP): 28%

Cc1ccc(OCCCCCC(=O)O)c(C=O)c1 [TB 154, 6-(2-formyl-4-methylphenoxy)hexanoic acid]
inhibition at 500 µM [1, 2]: 19%
inhibition at 2000 µM [1, 3]: 28%
melting point: 97 to 99 °C

CCC(CCCCC(=O)O)Oc1ccc([N+](=O)[O-])cc1C=O (stereo not shown) [TDD 57, 6-(2-formyl-4-nitrophenoxy)octanoic Acid]
inhibition at 500 µM [1, 2]: 36%
